# Measured values published in patent US10993941B2, “Methods for the administration of certain VMAT2 inhibitors” (Neurocrine Biosciences, Inc., priority 2017, dated 2021).
# “Also recorded” adds a separate entry of the source.
# Experiments:
# [1] = test system: more than 80 targets including GPCRs, cell-surface monoamine transporters, and ion channels including HERG; experiment: Multi-target activity screen (Cerep screen); conditions: receptors
# [2] = Phase 1 single-dose safety and tolerability (adverse events, laboratory tests, vital signs, ECG); assay type: in vivo, human; conditions: NBI-98854 50 mg single dose; for Abdominal discomfort / Adverse events: Overall / Back pain / Constipation / Dyspepsia / Epistaxis / Gastrointestinal Disorders / General Disorders and Administrative Site Conditions / Haemorrhoids / Headache / Infections and Infestations / Musculoskeletal and Connective Tissue Disorders / Nausea / Nervous System Disorders / Rash / Respiratory, Thoracic, and Mediastinal Disorders / Rhinitis / Skin and Subcutaneous Tissue Disorders / Vessel puncture site haematoma: subjects n (%)
# VMAT2 [3] = target: T1, VMAT2 (Homo sapiens, UniProt Q05940); experiment: Inhibition of [3H]-DHTBZ binding to human platelets
# T1 construct: from tissue; host or cells: human platelets (homogenates)
# VMAT2 [4] = target: T2, VMAT2 (Rattus norvegicus, UniProt Q01827); experiment: Inhibition of [3H]-DHTBZ binding to rat striatal membranes; conditions: Rat Striatum
# T2 construct: from tissue; host or cells: rat forebrain membranes
# clinical = conditions: both, human, in vivo
# From the text: (§1) Overall, 24 male and female subjects were enrolled, including 6 subjects with normal hepatic function (Group I), 6 with mild stable hepatic impairment (Group II), 6 with moderate stable hepatic impairment (Group III), and 6 with severe stable hepatic impairment (Group IV). […] All subjects were genotyped to determine their cytochrome P450 2D6 (CYP2D6) status.
# (§2) The Child-Pugh scale was used to categorize the degree of hepatic impairment for assignment into the mild (score of 5-6), moderate (score of 7-9), and severe hepatic impairment (score of 10-15) groups.
# (§3) After providing informed consent, subjects were screened for eligibility within 28 days of study drug dosing on Day 1. Eligible subjects were admitted to the center in the morning (Day −1), before the dosing day and remained confined in the center for 4 days. Subjects were discharged on Day 4, after the collection of the 72-hour PK sample and safety assessments. On the morning of Days 5 and 6, subjects returned to the center for a PK sample collection and safety assessments; a final study visit was conducted on Day 8 (7 days postdose).
# (§4) Safety assessments were conducted at scheduled times throughout the study.
# [5] = both, human, in vivo
# From the text: as §1, §2, §3, §4
# ptosis = experiment: Ptosis, in vivo surrogate measure
# human VMAT1 transporter = target: T3, human VMAT1 transporter (Homo sapiens, UniProt P54219); experiment: Uptake in cells expressing VMAT1; assay type: cell-based; conditions: concentrations up to 10 μM; listed as VBZ
# T3 construct: expressed in transfected cells
# T3 sequence (P54219 1-525): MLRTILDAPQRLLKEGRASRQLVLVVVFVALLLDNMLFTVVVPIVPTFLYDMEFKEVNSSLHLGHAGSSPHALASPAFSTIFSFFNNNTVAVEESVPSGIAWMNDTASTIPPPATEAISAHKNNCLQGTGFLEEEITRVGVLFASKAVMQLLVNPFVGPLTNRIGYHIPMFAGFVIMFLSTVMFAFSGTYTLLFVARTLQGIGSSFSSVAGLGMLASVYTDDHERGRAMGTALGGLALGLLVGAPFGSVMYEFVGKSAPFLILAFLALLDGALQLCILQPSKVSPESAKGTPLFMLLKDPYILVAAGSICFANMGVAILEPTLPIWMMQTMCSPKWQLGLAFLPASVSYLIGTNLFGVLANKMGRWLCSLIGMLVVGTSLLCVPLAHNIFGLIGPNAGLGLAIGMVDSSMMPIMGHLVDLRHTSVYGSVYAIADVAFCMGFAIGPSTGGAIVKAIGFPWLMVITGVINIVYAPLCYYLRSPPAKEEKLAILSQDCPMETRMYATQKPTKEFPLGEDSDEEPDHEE
# Experimental: None of the TBZ or VBZ metabolites had any affinity for the monoamine transporters DAT, SERT or NET. To complete the selectivity profile for VMAT2, the functional activity for the human VMAT1 transporter of these compounds was tested in cells expressing VMAT1.
# serum prolactin = experiment: Prolactin release, in vivo surrogate measure
# T2 sequence (Q01827 whole entry): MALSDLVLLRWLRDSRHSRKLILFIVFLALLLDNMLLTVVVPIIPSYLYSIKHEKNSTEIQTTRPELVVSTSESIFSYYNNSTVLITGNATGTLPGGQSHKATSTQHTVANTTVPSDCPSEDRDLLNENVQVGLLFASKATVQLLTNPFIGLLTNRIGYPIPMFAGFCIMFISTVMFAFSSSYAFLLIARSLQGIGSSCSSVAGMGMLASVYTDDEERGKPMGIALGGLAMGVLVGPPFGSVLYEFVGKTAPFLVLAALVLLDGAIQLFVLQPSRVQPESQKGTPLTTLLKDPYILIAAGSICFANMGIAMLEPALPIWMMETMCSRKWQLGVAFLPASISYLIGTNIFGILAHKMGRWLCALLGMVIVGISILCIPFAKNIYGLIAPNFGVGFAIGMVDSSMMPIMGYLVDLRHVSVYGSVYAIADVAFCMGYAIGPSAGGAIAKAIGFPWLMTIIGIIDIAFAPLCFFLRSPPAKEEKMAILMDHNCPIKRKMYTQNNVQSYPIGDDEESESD
# T1 sequence (Q05940 whole entry): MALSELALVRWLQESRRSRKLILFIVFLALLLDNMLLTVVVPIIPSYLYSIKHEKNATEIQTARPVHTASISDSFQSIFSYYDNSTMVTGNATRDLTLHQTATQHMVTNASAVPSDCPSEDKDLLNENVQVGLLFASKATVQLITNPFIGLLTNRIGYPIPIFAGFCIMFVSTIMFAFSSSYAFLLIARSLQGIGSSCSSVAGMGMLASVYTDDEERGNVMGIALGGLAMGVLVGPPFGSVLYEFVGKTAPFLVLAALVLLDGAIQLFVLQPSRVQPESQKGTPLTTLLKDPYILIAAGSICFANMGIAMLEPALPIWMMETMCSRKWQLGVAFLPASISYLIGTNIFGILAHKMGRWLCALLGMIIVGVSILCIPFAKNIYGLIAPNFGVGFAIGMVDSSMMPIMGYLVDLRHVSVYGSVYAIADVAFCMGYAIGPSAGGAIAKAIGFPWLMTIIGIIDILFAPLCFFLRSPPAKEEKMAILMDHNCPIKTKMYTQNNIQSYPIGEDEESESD
compound,measurement,setting,value
"COc1cc2c(cc1OC)[C@H]1C[C@@H](OC(=O)[C@@H](N)C(C)C)[C@H](CC(C)C)CN1CC2 [NBI-98854, (S)-2-amino-3-methyl-butyric acid (2R,3R,11bR)-3-isobutyl-9,10-dimethoxy-1,3,4,6,7,11b-hexahydro-2H-pyrido[2,1-a]isoquinolin-2-yl ester]",affinity for more than 80 binding sites,[1],little to no affinity
same,Abdominal discomfort,[2]; Mild (N = 6),0
same,Adverse events: Overall,[2]; Mild (N = 6),2 (33.3%)
same,Back pain,[2]; Mild (N = 6),0
same,Constipation,[2]; Mild (N = 6),0
same,Dyspepsia,[2]; Mild (N = 6),0
same,Epistaxis,[2]; Mild (N = 6),0
same,Gastrointestinal Disorders,[2]; Mild (N = 6),1 (16.7%)
same,General Disorders and Administrative Site Conditions,[2]; Mild (N = 6),0
same,Haemorrhoids,[2]; Mild (N = 6),1 (16.7%)
same,Headache,[2]; Mild (N = 6),1 (16.7%)
same,Infections and Infestations,[2]; Mild (N = 6),1 (16.7%)
same,Musculoskeletal and Connective Tissue Disorders,[2]; Mild (N = 6),0
same,Nausea,[2]; Mild (N = 6),0
same,Nervous System Disorders,[2]; Mild (N = 6),1 (16.7%)
same,Rash,[2]; Mild (N = 6),0
same,"Respiratory, Thoracic, and Mediastinal Disorders",[2]; Mild (N = 6),0
same,Rhinitis,[2]; Mild (N = 6),1 (16.7%)
same,Skin and Subcutaneous Tissue Disorders,[2]; Mild (N = 6),0
same,Vessel puncture site haematoma,[2]; Mild (N = 6),0
same,Abdominal discomfort,[2]; Moderate (N = 6),0
same,Adverse events: Overall,[2]; Moderate (N = 6),2 (33.3%)
same,Back pain,[2]; Moderate (N = 6),1 (16.7%)
same,Constipation,[2]; Moderate (N = 6),1 (16.7%)
same,Dyspepsia,[2]; Moderate (N = 6),0
same,Epistaxis,[2]; Moderate (N = 6),0
same,Gastrointestinal Disorders,[2]; Moderate (N = 6),1 (16.7%)
same,General Disorders and Administrative Site Conditions,[2]; Moderate (N = 6),0
same,Haemorrhoids,[2]; Moderate (N = 6),0
same,Headache,[2]; Moderate (N = 6),0
same,Infections and Infestations,[2]; Moderate (N = 6),0
same,Musculoskeletal and Connective Tissue Disorders,[2]; Moderate (N = 6),1 (16.7%)
same,Nausea,[2]; Moderate (N = 6),0
same,Nervous System Disorders,[2]; Moderate (N = 6),0
same,Rash,[2]; Moderate (N = 6),1 (16.7%)
same,"Respiratory, Thoracic, and Mediastinal Disorders",[2]; Moderate (N = 6),0
same,Rhinitis,[2]; Moderate (N = 6),0
same,Skin and Subcutaneous Tissue Disorders,[2]; Moderate (N = 6),1 (16.7%)
same,Vessel puncture site haematoma,[2]; Moderate (N = 6),0
same,Abdominal discomfort,[2]; Normal (N = 6),1 (16.7%)
same,Adverse events: Overall,[2]; Normal (N = 6),2 (33.3%)
same,Back pain,[2]; Normal (N = 6),0
same,Constipation,[2]; Normal (N = 6),0
same,Dyspepsia,[2]; Normal (N = 6),0
same,Epistaxis,[2]; Normal (N = 6),0
same,Gastrointestinal Disorders,[2]; Normal (N = 6),1 (16.7%)
same,General Disorders and Administrative Site Conditions,[2]; Normal (N = 6),1 (16.7%)
same,Haemorrhoids,[2]; Normal (N = 6),0
same,Headache,[2]; Normal (N = 6),0
same,Infections and Infestations,[2]; Normal (N = 6),0
same,Musculoskeletal and Connective Tissue Disorders,[2]; Normal (N = 6),0
same,Nausea,[2]; Normal (N = 6),0
same,Nervous System Disorders,[2]; Normal (N = 6),0
same,Rash,[2]; Normal (N = 6),0
same,"Respiratory, Thoracic, and Mediastinal Disorders",[2]; Normal (N = 6),0
same,Rhinitis,[2]; Normal (N = 6),0
same,Skin and Subcutaneous Tissue Disorders,[2]; Normal (N = 6),0
same,Vessel puncture site haematoma,[2]; Normal (N = 6),1 (16.7%)
same,Abdominal discomfort,[2]; Severe (N = 6),0
same,Adverse events: Overall,[2]; Severe (N = 6),2 (33.3%)
same,Back pain,[2]; Severe (N = 6),0
same,Constipation,[2]; Severe (N = 6),0
same,Dyspepsia,[2]; Severe (N = 6),1 (16.7%)
same,Epistaxis,[2]; Severe (N = 6),1 (16.7%)
same,Gastrointestinal Disorders,[2]; Severe (N = 6),1 (16.7%)
same,General Disorders and Administrative Site Conditions,[2]; Severe (N = 6),0
same,Haemorrhoids,[2]; Severe (N = 6),0
same,Headache,[2]; Severe (N = 6),0
same,Infections and Infestations,[2]; Severe (N = 6),0
same,Musculoskeletal and Connective Tissue Disorders,[2]; Severe (N = 6),0
same,Nausea,[2]; Severe (N = 6),1 (16.7%)
same,Nervous System Disorders,[2]; Severe (N = 6),0
same,Rash,[2]; Severe (N = 6),0
same,"Respiratory, Thoracic, and Mediastinal Disorders",[2]; Severe (N = 6),1 (16.7%)
same,Rhinitis,[2]; Severe (N = 6),0
same,Skin and Subcutaneous Tissue Disorders,[2]; Severe (N = 6),0
same,Vessel puncture site haematoma,[2]; Severe (N = 6),0
same,intensity of TEAEs judged by the investigator,[2]; all TEAEs,mild in intensity
same,"changes in clinical laboratory tests, vital signs measurements, or ECG parameters",[2]; all groups,no clinically significant changes
same,"deaths, serious or severe TEAEs",[2]; all groups,"No deaths, serious or severe treatment-emergent adverse events (TEAEs) were reported; also recorded: No deaths, serious TEAEs, or discontinuations due to an AE were reported"
same,discontinuation due to a TEAE,[2]; all groups,no subject discontinued the study due to a TEAE
same,tolerability,[2]; normal subjects and subjects with hepatic impairment,well-tolerated
same,Treatment-related AEs (possibly or definitely related to study drug),[2]; of 24 subjects,4 subjects
same,"Affinity Relative to R,R,R-DHTBZ",VMAT2 [3],45
same,"Affinity Relative to R,R,R-DHTBZ",VMAT2 [4],39
same,MRT,clinical,23 to 30 h
same,half-life,clinical; mean t1/2,21 to 22 h
same,MRT,"clinical; po, 50 mg",24 h
same,Tmax,"clinical; po, 50 mg, TMAX",1.1 h
same,Vd/F,"clinical; po, 50 mg, Vz/F",600 L
same,half-life,"clinical; po, 50 mg, t1/2",28 h
same,increase in Cmax,[5],2-3 fold
same,increase in t1/2 with hepatic impairment,[5],< 2 fold
same,increase in tmax with hepatic impairment,[5],< 2 fold
same,mean Tlag,[5],0.17 to 0.38 h
same,induction of ptosis,ptosis,induced ptosis in an equivalent manner
same,inhibition of uptake through VMAT1,human VMAT1 transporter,no significant inhibitory activity; also recorded: no significant effect on the uptake of monoamines through VMAT1
same,increase in serum prolactin levels,serum prolactin,to a lesser extent
